We go through 48 molecules from ChEMBL document CHEMBL5154654, “Design, synthesis and biological evaluation of 7-((7H-pyrrolo[2,3-d]pyrimidin-4-yl)oxy)-2,3-dihydro-1H-inden-1-one derivatives as potent FAK inhibitors for the treatment of ovarian cancer” (Eur J Med Chem, 2022).

Converted amounts (≈) assume the structure as drawn.

For one series, the target named is Focal adhesion kinase 1 (Homo sapiens, UniProt Q05397). As to the kind of experiment: Inhibition of FAK (unknown origin) using Fluorescein-Poly GAT as substrate incubated for 30 mins and measured after 60 mins by Lanthascreen assay. A general note: In TR-FRET formats the signal depends on donor and acceptor labels being close together.
Focal adhesion kinase 1, sequence (Q05397 whole entry): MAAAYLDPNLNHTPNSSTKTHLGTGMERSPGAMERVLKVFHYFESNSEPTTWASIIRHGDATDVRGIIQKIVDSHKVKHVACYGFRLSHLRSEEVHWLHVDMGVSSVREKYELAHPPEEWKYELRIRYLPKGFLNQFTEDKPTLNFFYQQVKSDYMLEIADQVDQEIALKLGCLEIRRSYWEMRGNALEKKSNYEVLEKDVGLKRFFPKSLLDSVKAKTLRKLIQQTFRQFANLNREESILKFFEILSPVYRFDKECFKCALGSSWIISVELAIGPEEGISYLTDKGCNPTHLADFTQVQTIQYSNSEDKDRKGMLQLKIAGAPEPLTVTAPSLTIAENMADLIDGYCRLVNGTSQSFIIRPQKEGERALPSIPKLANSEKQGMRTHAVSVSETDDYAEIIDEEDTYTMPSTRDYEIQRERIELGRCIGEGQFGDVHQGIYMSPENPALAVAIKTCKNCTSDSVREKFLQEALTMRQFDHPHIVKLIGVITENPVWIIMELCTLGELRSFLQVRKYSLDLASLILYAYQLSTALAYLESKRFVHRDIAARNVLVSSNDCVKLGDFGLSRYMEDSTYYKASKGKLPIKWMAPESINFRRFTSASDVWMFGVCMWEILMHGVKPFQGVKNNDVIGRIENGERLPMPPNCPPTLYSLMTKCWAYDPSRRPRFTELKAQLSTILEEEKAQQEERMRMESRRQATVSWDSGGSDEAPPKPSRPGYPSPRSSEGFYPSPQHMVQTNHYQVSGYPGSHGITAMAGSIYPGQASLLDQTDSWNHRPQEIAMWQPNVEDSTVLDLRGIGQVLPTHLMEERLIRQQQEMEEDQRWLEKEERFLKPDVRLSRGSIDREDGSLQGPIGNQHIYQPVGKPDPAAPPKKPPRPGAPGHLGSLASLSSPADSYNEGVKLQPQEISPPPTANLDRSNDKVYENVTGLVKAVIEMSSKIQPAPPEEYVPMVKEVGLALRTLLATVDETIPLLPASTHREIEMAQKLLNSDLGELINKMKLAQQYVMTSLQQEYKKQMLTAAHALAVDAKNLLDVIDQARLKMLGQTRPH
A short description of series [1]: Metabolic stability in human liver microsomes assessed as parent compound remaining incubated for 120 mins in presence of NADPH by LC-MS/MS analysis. Type of series: ADME, Microsome. Conditions: read-out: Stability. (Liver microsomes are a subcellular fraction often used to study metabolism.)
Series [2] is described as follows: Metabolic stability in human liver microsomes assessed as half-life incubated for 120 mins in presence of NADPH by LC-MS/MS analysis. Format: ADME, Microsome.
The nature of series [3]: Metabolic stability in human liver microsomes assessed as intrinsic clearance incubated for 120 mins in presence of NADPH by LC-MS/MS analysis. Type of series: ADME, Microsome. Conditions: read-out: CLH.
Series [4] can be described thus: Aqueous solubility of compound. Format: physicochemical. Conditions: aqueous (not further specified).
The target in series [5] is Receptor-type tyrosine-protein kinase FLT3 (Homo sapiens) (UniProt P36888). As to the kind of experiment: Inhibition of FLT3 (unknown origin) at 1 uM incubated for 40 mins in presence of Mg/ATP mix relative to control.
Receptor-type tyrosine-protein kinase FLT3 (Homo sapiens), sequence (P36888 whole entry): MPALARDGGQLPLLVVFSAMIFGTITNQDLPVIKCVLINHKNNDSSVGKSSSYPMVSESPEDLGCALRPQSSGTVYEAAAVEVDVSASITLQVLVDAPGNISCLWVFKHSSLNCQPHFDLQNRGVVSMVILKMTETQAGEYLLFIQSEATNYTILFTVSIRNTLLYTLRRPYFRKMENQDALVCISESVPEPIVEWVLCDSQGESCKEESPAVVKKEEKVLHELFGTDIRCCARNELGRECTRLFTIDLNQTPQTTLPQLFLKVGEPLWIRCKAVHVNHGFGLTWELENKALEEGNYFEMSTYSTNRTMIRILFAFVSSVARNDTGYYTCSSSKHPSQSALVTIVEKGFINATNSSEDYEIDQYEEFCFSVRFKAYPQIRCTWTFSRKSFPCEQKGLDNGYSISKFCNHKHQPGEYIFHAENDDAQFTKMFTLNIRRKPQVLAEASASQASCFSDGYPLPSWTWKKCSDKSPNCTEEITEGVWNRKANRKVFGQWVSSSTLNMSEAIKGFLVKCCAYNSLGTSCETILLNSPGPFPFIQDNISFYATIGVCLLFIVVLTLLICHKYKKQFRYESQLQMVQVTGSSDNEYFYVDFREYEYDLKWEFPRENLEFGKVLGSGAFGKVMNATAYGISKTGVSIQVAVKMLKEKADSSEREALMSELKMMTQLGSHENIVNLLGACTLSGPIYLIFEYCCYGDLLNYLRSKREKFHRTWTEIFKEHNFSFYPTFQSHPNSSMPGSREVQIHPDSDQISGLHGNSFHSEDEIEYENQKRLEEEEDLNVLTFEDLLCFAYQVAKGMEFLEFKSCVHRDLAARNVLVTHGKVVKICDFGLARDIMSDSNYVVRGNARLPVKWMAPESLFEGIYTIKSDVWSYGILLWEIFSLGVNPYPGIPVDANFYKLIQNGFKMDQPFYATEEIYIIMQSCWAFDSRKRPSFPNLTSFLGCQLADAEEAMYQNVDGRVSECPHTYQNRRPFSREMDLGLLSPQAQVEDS
The next series is filed under the species Homo sapiens. As to the kind of experiment: Inhibition of MEK (unknown origin) at 1 uM incubated for 40 mins in presence of Mg/ATP mix relative to control.

A word on the IC50: it is the concentration at which inhibition is half-maximal. A high value points to lower potency. Broadly, the half-life is the time needed for the level to fall by half in the phase considered. As for `Cc1cc(Nc2nc(Oc3cccc4c3C(=O)CC4)c3cc[nH]c3n2)ccc1N1CCN(CC2CC2)CC1`, 4.2 nM corresponded to half-maximal inhibition against Focal adhesion kinase 1 (IC50). The remaining at 2 h in series [1] was found to be 15.3%. Besides, in series [2], the half-life is less than 0.5 h. In series [3], the CLint scaled was more than 29 mL/min/kg.
`CN1CCN(c2ccc(Nc3nc(Oc4cccc5c4C(=O)CC5)c4cc[nH]c4n3)cc2)CC1`: inhibition against Focal adhesion kinase 1 was half-maximal at 10.5 nM (IC50).
The same measure, in the same setting: the value for `COc1cc(N2C[C@@H](C)O[C@@H](C)C2)ccc1Nc1nc(Oc2cccc3c2C(=O)CC3)c2cc[nH]c2n1` was 11.9 nM; that for `CN1CCN(c2ccc(Nc3nc(Oc4cccc5c4C(=O)CC5)c4[nH]ccc4n3)cc2)CC1` was more than 1000 nM.
The same measure, in the same setting: the value for `CN1CCN(c2ccc(Nc3nc(Oc4cccc5c4C(=O)CC5)c4cc[nH]c4n3)c(C(F)(F)F)c2)CC1` was 99.8 nM.
As usually defined, the solubility is how much of the substance goes into solution per volume. A higher solubility goes with a readily soluble substance. Regarding `Cc1ccc(Oc2nc(Nc3ccc(N4CCC(N5CCN(C)CC5)CC4)cc3)nc3[nH]ccc23)c2c1CCC2=O`, at Focal adhesion kinase 1, the IC50 is 2.47 nM. Also, the remaining at 2 h in series [1] came to 41.5%. Besides, in series [2], the half-life was 1.57 h. In series [3], the CLint scaled stood at 93 mL/min/kg. Also, in series [4], the solubility was found to be 38 µg/mL (≈ 68.9 µM).
As for `COc1cc(N2CCN(C)CC2)ccc1Nc1nc(Oc2cccc3c2C(=O)CC3)c2cc[nH]c2n1`, the IC50 against Focal adhesion kinase 1 came to 3.86 nM. Moreover, the remaining at 2 h in series [1] is 62.7%. Further, the half-life in series [2] is more than 2 h. Moreover, the CLint scaled in series [3] came out at 52 mL/min/kg. The molecule further returned a solubility in series [4] of 13.6 µg/mL (≈ 28.1 µM).
On to `COc1cc(N2CCC(N3CCN(C)CC3)CC2)ccc1Nc1nc(Oc2cccc3c2C(=O)CC3)c2ccccc2n1`, for which the midpoint of inhibition against Focal adhesion kinase 1, the IC50, lay at 246 nM. That is a sub-micromolar value.
`CN1CCN(c2ccc(Nc3nc(Oc4cccc5c4C(=O)CC5)c4sccc4n3)cc2)CC1` yielded an IC50 at Focal adhesion kinase 1 of 110 nM.
Molecule `COc1cc(N2CCOCC2)ccc1Nc1nc(Oc2cccc3c2C(=O)CC3)c2cc[nH]c2n1` displayed an IC50 against Focal adhesion kinase 1 of 1140 nM.
Take `Cc1cc(Nc2nc(Oc3cccc4c3C(=O)CC4)c3cc[nH]c3n2)ccc1N1CCN(C2COC2)CC1`: inhibition on Focal adhesion kinase 1 was half-maximal at 6.32 nM (IC50).
Still for that read-out and setting: the value for `CN1CCN(c2ccc(Nc3nc(Oc4cccc5c4C(=O)CC5)c4cc[nH]c4n3)cc2F)CC1` was 5.64 nM; that for `Cc1cc(N2CCN(C)CC2)ccc1Nc1nc(Oc2cccc3c2C(=O)CC3)c2cc[nH]c2n1` was 7.13 nM.
Still for that read-out and setting: the value for `COc1cc(N2CCOCC2)ccc1Nc1nc(Oc2cccc3c2C(=O)CC3)c2sccc2n1` was 113 nM; that for `COc1cc(N2CCN(C)CC2)ccc1Nc1nc(Oc2cccc3c2C(=O)CC3)c2sccc2n1` was 41.4 nM.
The molecule `CN1CCN(c2ccc(Nc3nc(Oc4cccc5c4C(=O)CC5)c4cc[nH]c4n3)cc2Cl)CC1` yielded an IC50 against Focal adhesion kinase 1 of 4.8 nM. In series [1], the remaining at 2 h was 15.7%. The half-life in series [2] is 0.775 h. Moreover, the CLint scaled in series [3] was 18.7 mL/min/kg.
In turn, `COc1nc(N2CCN(C)CC2)ccc1Nc1nc(Oc2cccc3c2C(=O)CC3)c2cc[nH]c2n1` showed an IC50 at Focal adhesion kinase 1 of 9.05 nM.
On to `Cc1cc(Nc2nc(Oc3cccc4c3C(=O)CC4)c3cc[nH]c3n2)ccc1OCCN(C)C`, for which it took 3.93 nM to reach half-maximal inhibition against Focal adhesion kinase 1 (IC50). The remaining at 2 h in series [1] is 19.8%. For the same molecule, in series [2], the half-life was 0.867 h. Moreover, the CLint scaled in series [3] stood at 16.7 mL/min/kg. This molecule registered a solubility in series [4] of 9.3 µg/mL (≈ 20.3 µM).
Molecule `COc1cc(N2CCC(N3CCN(C)CC3)CC2)ccc1Nc1nc(-n2cnc3ccccc32)c2cc[nH]c2n1` gave an IC50 against Focal adhesion kinase 1 of 27.6 nM.
On the same count and under the same terms, the value for `O=C1CCc2cccc(Oc3nc(Nc4ccc(N5CCOCC5)cc4)nc4ccsc34)c21` was 245 nM; that for `COc1cc(N2CCOCC2)ccc1Nc1nc(Oc2cccc3c2C(=O)CC3)c2[nH]ccc2n1` was more than 1000 nM.
`O=C1CCc2cccc(Oc3nc(Nc4ccc(N5CCOCC5)cc4)nc4[nH]ccc34)c21` gave an IC50 against Focal adhesion kinase 1 of 12.2 nM. This lies in the double-digit nanomolar range.
Broadly, the inhibition is the drop in the measured response relative to a control, in per cent. As for `CNC(=O)c1ccc(Nc2ncc(C(F)(F)F)c(NCc3nccnc3N(C)S(C)(=O)=O)n2)cc1`, the inhibition (in series [5]; in the series listed under Homo sapiens) was more than 90% throughout.
Regarding `COc1cc(N2CCN(C)CC2)ccc1Nc1nc(-n2cnc3ccccc32)c2cc[nH]c2n1`, the IC50 against Focal adhesion kinase 1 was found to be 36.8 nM.
The molecule `Cc1cc(Nc2nc(Oc3cccc4c3C(=O)CC4)c3cc[nH]c3n2)n(C(C)C)n1` returned an IC50 on Focal adhesion kinase 1 of 206 nM.
The same measure, in the same setting: the value for `COc1cc(N2CCC(N3CCN(C)CC3)CC2)ccc1Nc1nc(-n2ccc3ccccc32)c2cc[nH]c2n1` was 144 nM; that for `COc1cc(N2CCC(N3CCN(C)CC3)CC2)ccc1Nc1nc(Oc2cccc3c2C(=O)CC3)c2ccsc2n1` was 945 nM.
Regarding `COc1cc(C(=O)NC2CC2)ccc1Nc1nc(Oc2cccc3c2C(=O)CC3)c2cc[nH]c2n1`, the IC50 at Focal adhesion kinase 1 was determined as 10.9 nM.
Regarding `CN1CCN(C2CCN(c3ccc(Nc4nc(Oc5cccc6c5C(=O)CC6)c5cc[nH]c5n4)cc3)CC2)CC1`, the IC50 on Focal adhesion kinase 1 amounted to 2.91 nM. The remaining at 2 h in series [1] was found to be 42.2%. Further, in series [2], the half-life came to 1.55 h. The CLint scaled in series [3] stood at 93 mL/min/kg. In series [4], the solubility came out at 39.4 µg/mL (≈ 73.3 µM).
On to `COc1cc(N2CCOCC2)ccc1Nc1nc(Oc2cccc3c2C(=O)CC3)c2ccsc2n1`, for which the IC50 at Focal adhesion kinase 1 is more than 1000 nM.
Regarding `COc1cc(N2C[C@@H]3C[C@H]2CO3)ccc1Nc1nc(Oc2cccc3c2C(=O)CC3)c2cc[nH]c2n1`, at Focal adhesion kinase 1, half-maximal inhibition (IC50) was put at 9.6 nM.
On the same count and under the same terms, the value for `O=C1CCc2cccc(Oc3nc(Nc4ccc(N5CCOCC5)cc4)nc4cc[nH]c34)c21` was more than 1000 nM.
The molecule `COc1cc(N2CCC(N3CCN(C)CC3)CC2)ccc1Nc1nc(Oc2cccc3c2C(=O)CC3)c2sccc2n1` came in with an IC50 against Focal adhesion kinase 1 of 27.4 nM.
Regarding `COc1cc(N2CCN(C)CC2)ccc1Nc1nc(-n2ccc3ccccc32)c2cc[nH]c2n1`, half-maximal inhibition on Focal adhesion kinase 1 (IC50) was put at 166 nM.
In turn, `COc1cc(N2CCN(C)CC2)ccc1Nc1nc(-c2cnn(C)c2)c2cc[nH]c2n1` came in with an IC50 against Focal adhesion kinase 1 of 330 nM.
In turn, `O=C1CCc2cccc(Oc3nc(Nc4ccc(N5CCOCC5)cc4)nc4sccc34)c21` showed an IC50 on Focal adhesion kinase 1 of more than 1000 nM.
The same measure, in the same setting: the value for `CN1CCN(c2ccc(Nc3nc(Oc4cccc5c4C(=O)CC5)c4ccsc4n3)cc2)CC1` was more than 1000 nM; that for `CN1CCN(c2ccc(Nc3nc(Oc4cccc5c4C(=O)CC5)c4ccccc4n3)cc2)CC1` was more than 1000 nM; that for `COc1cc(N2CCN(C)CC2)ccc1Nc1nc(Oc2cccc3c2C(=O)CC3)c2ccccc2n1` was 231 nM.
Same read-out and setting: the value for `O=C1CCc2cccc(Oc3nc(Nc4ccc(N5CCOCC5)cc4)nc4ccccc34)c21` was more than 1000 nM; that for `COc1cc(N2CCC(N3CCN(C)CC3)CC2)ccc1Nc1nc(-c2cnn(C)c2)c2cc[nH]c2n1` was 173 nM.
`COc1cc(N2CCOCC2)ccc1Nc1nc(Oc2cccc3c2C(=O)CC3)c2ccccc2n1`: on Focal adhesion kinase 1, half-maximal inhibition (IC50) required 654 nM.
The same measure, in the same setting: the value for `O=C1NCc2cc(Nc3nc(Oc4cccc5c4C(=O)CC5)c4cc[nH]c4n3)ccc21` was 20.6 nM.
In turn, `COc1cc(N2CCN(C)CC2)ccc1Nc1nc(Oc2ccc(C)c3c2C(=O)CC3)c2cc[nH]c2n1` gave an IC50 against Focal adhesion kinase 1 of 2.04 nM. For the same molecule, in series [1], the remaining at 2 h turned out to be 42.2%. Moreover, the half-life in series [2] was found to be 1.65 h. In addition, the CLint scaled in series [3] turned out to be 8.8 mL/min/kg. In addition, in series [4], the concentration in solution (solubility) was 7.9 µg/mL (≈ 15.8 µM).
For the molecule `COc1cc(N2CCC(N3CCN(C)CC3)CC2)ccc1Nc1nc(Oc2cccc3c2C(=O)CC3)c2[nH]ccc2n1`, the IC50 against Focal adhesion kinase 1 is more than 1000 nM.
Still for that read-out and setting: the value for `COc1cc(N2CCN(C)CC2)ccc1Nc1nc(Oc2cccc3c2C(=O)CC3)c2ccsc2n1` was more than 1000 nM.
Same read-out and setting: the value for `COc1cc(N2CCN(C)CC2)ccc1Nc1nc(Oc2cccc3c2C(=O)CC3)c2[nH]ccc2n1` was more than 1000 nM.
On the same count and under the same terms, the value for `CN1CCN(c2ccc(Nc3nc(Oc4cccc5c4C(=O)CC5)c4cc[nH]c4n3)cc2C#N)CC1` was 20.6 nM.
